# Experimental data from article PMC8253220, “Molecular design, synthesis and in vitro biological evaluation of thienopyrimidine–hydroxamic acids as chimeric kinase HDAC inhibitors: a challenging approach to combat cancer” (Journal of Enzyme Inhibition and Medicinal Chemistry, 2021).
# Where “and” joins values, the source holds several entries; their conditions need not be identical. Identical values can stand only once.
# How the values were obtained:
# [1] = biological target: T1, HDAC6 (Homo sapiens, UniProt Q9UBN7); assay: In vitro HDAC6 inhibitory assay (BPS Bioscience, fluorogenic); assay type: biochemical; details: 10 µM
# T1 construct: purchased BPS Bioscience 50006
# T1 sequence (Q9UBN7 1-1215): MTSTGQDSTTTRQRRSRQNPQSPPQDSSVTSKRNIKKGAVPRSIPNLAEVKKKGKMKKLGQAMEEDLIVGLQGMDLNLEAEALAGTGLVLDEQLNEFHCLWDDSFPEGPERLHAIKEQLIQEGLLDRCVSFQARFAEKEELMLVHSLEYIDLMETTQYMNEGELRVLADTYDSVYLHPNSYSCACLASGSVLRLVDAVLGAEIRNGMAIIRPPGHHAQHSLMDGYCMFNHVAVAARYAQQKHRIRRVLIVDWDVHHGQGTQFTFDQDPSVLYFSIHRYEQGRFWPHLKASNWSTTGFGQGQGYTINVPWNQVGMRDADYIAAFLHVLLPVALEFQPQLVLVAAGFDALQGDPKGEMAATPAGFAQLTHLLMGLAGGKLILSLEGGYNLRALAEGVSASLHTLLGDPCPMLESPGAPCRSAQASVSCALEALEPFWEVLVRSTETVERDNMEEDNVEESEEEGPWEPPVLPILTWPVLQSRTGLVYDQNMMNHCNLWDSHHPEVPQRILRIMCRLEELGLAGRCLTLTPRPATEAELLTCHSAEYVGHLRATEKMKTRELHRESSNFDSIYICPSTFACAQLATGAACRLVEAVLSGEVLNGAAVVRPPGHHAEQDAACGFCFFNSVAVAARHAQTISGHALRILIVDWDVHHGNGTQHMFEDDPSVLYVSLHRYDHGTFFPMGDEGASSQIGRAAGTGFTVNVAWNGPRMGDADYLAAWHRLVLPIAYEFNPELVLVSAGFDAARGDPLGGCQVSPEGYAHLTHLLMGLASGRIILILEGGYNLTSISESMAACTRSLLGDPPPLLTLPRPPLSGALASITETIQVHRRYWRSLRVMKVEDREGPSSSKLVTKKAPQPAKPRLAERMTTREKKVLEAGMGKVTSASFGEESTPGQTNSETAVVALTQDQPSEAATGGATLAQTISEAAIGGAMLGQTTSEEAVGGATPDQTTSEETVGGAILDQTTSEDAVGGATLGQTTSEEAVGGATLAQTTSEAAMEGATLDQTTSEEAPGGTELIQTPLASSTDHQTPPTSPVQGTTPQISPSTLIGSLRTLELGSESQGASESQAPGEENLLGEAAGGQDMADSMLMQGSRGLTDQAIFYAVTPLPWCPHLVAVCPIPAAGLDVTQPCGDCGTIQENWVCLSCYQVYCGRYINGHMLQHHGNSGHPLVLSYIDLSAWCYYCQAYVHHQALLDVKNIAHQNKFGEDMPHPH
# Protocol: (1 picture or pasted object on this page, not shown here)
# HDAC activity assays were performed in duplicates at each concentration. The
# [2] = system: SK-MEL-2; assay: NCI one-dose screen; assay type: cell-based, human; details: Melanoma SK-MEL-2, 10 µM single dose
# Outline: (§1)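 At 10 μM, a single concentration, compounds were evaluated for antiproliferative effect in the NCI 60-line screen, with growth expressed relative to untreated control cells.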
# [3] = system: OVCAR-5; assay: NCI one-dose screen; assay type: cell-based, human; details: Ovarian OVCAR-5, 10 µM single dose
# Outline: as §1
# [4] = system: HCC-2998; assay: NCI one-dose screen; assay type: cell-based, human; details: Colon HCC-2998, 10 µM single dose
# Outline: as §1
# [5] = system: SK-MEL-5; assay: NCI one-dose screen; assay type: cell-based, human; details: Melanoma SK-MEL-5, 10 µM single dose
# Outline: as §1
# [6] = system: OVCAR-4; assay: NCI one-dose screen; assay type: cell-based, human; details: Ovarian OVCAR-4, 10 µM single dose
# Outline: as §1
# [7] = system: HOP-92; assay: NCI one-dose screen; assay type: cell-based, human; details: NSCLC HOP-92, 10 µM single dose
# Outline: as §1
# [8] = system: SNB-75; assay: NCI one-dose screen; assay type: cell-based, human; details: for Growth Percent: CNS SNB-75, 10 µM single dose
# Outline: (§2)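 Compounds were tested at a single dose of 10 μM across the full NCI-60 cell line panel. Growth was expressed as percent growth relative to untreated control cells, reported as percent inhibition.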
# [9] = system: RPMI-8226; assay: NCI one-dose screen; assay type: cell-based, human; details: Leukemia RPMI-8226, 10 µM single dose
# Outline: as §1
# [10] = system: UO-31; assay: NCI one-dose screen; assay type: cell-based, human; details: Renal UO-31, 10 µM single dose
# Outline: as §2
# [11] = system: 786-0; assay: NCI one-dose screen; assay type: cell-based, human; details: Renal 786-0, 10 µM single dose
# Outline: as §1
# [12] = system: HT29; assay: NCI one-dose screen; assay type: cell-based, human; details: Colon HT29, 10 µM single dose
# Outline: as §1
# [13] = system: KM12; assay: NCI one-dose screen; assay type: cell-based, human; details: Colon KM12, 10 µM single dose
# Outline: (§3)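 In vitro antiproliferative testing: NCI-60 panel, initial single dose 10 μM, inhibition % derived from percent growth of treated versus untreated control cells.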
# [14] = system: MDA-MB-468; assay: NCI one-dose screen; assay type: cell-based, human; details: Breast MDA-MB-468, 10 µM single dose
# Outline: as §3
SMILES,inhibition at 10 µM [1] [%],Growth Percent [2],Growth Percent [3],Growth Percent [4],Growth Percent [5],Growth Percent [6],Growth Percent [7],Growth Percent [8],Growth Percent [9],Growth Percent [10],Growth Percent [11],Growth Percent [12],Growth Percent [13],Growth Percent [14],"inhibition at 10 µM ([8]; Homo sapiens, CNS SNB-75, 10 μM) [%]",Mean % inhibition HDAC6 [1] [%]
"Cc1c(C(=O)NO)sc2ncnc(Nc3ccccc3)c12 [Compound 15b, N-hydroxy-5-methyl-4-(phenylamino)thieno[2,3-d]pyrimidine-6-carboxamide]",30,109.3% and 109.33%,98.4% and 98.41%,99.9% and 99.98%,99.0% and 99.02%,94.7% and 94.72%,99.8% and 99.83%,74.2% and 74.29%,106.0% and 106.04%,72.7% and 72.78%,98.6% and 98.65%,100.5% and 100.52%,102.0% and 102.03%,80.8%,–,–
"Cc1c(C(=O)NCCC(=O)NO)sc2ncnc(Nc3ccccc3)c12 [Compound 19b, N-(3-(hydroxyamino)-3-oxopropyl)-5-methyl-4-(phenylamino)thieno[2,3-d]pyrimidine-6-carboxamide]",10,108.6% and 108.65%,102.0% and 102.09%,97.7%,94.4% and 94.42%,104.9% and 104.94%,102.5%,81.4% and 81.46%,103.3% and 103.33%,86.4% and 86.41%,102.5% and 102.58%,104.9% and 104.96%,101.9% and 101.98%,92.2% and 92.23%,–,–
"Cc1c(C(=O)NCCCC(=O)NO)sc2ncnc(Nc3ccc(NC(=O)Nc4cccc(C(F)(F)F)c4)cc3)c12 [Compound 12c, 1–(4-(6-((4-(hydroxyamino)-4-oxobutyl)carbamoyl)-5-methylthieno[2,3-d]pyrimidin-4-ylamino)phenyl)-3–(3-(trifluoromethyl)phenyl)urea]",23,107.8% and 107.86%,111.3% and 111.33%,113.6% and 113.65%,100.9% and 100.91%,110.1% and 110.14%,130.0% and 130.03%,70.7% and 70.76%,104.0% and 104.09%,89.6% and 89.64%,106.6% and 106.68%,104.0% and 104.09%,102.1% and 102.13%,105.6% and 105.66%,29.2,–
"Cc1c(C(=O)NCCC(=O)NO)sc2ncnc(Nc3ccc(NC(=O)Nc4ccccc4)cc3)c12 [Compound 11a, 1–(4-(6-((3-(hydroxyamino)-3-oxopropyl)carbamoyl)-5-methylthieno[2,3-d]pyrimidin-4-ylamino)phenyl)-3-phenylurea]",5,107.0% and 107.07%,106.2% and 106.26%,98.0% and 98.02%,99.1% and 99.18%,101.4% and 101.41%,106.7% and 106.72%,79.7% and 79.72%,109.4%,83.7% and 83.77%,98.2% and 98.21%,104.0% and 104.03%,103.2% and 103.23%,101.3% and 101.31%,–,7
"Cc1c(C(=O)NCCCC(=O)NO)sc2ncnc(Nc3ccc(Cl)cc3)c12 [Compound 20c, 4–(4-chlorophenylamino)-N-(4-(hydroxyamino)-4-oxobutyl)-5-methylthieno[2,3-d]pyrimidine-6-carboxamide]",9,106.2% and 106.25%,109.8% and 109.86%,102.4% and 102.48%,100.0%,109.4%,111.8% and 111.83%,79.1% and 79.17%,103.6% and 103.64%,81.5% and 81.51%,83.0% and 83.06%,108.2% and 108.21%,101.7% and 101.78%,110.9% and 110.91%,–,7
"Cc1c(C(=O)NCCCC(=O)NO)sc2ncnc(Nc3ccccc3)c12 [Compound 20b, N-(4-(hydroxyamino)-4-oxobutyl)-5-methyl-4-(phenylamino)thieno[2,3-d]pyrimidine-6-carboxamide]",56,102.9%,100.2% and 100.23%,104.7% and 104.78%,97.6% and 97.62%,105.4% and 105.47%,110.5% and 110.53%,95.6%,102.2%,88.2% and 88.29%,113.5% and 113.55%,102.3% and 102.36%,101.4% and 101.41%,98.0% and 98.03%,–,–
